Experimental data as given in US8709419B2, “Combination therapy” (Hoffmann-La Roche, Inc., priority 2010, dated 2014).
Structures can show the parent of a compound that is named as a salt. Where two headings read alike, the source gives them in different places.

Key:
[1] = system: Human HT-29 Cell Xenografts; experiment: HT-29 xenograft mice, Example 4 (Compound I / erlotinib HCl, treatment day 12-29): tumor growth inhibition, regression, survival; assay type: in vivo; conditions: for Complete Regression / Partial Regression: animals of 10 per group; for 50% Treatment Days: median survival
Protocol: (§1) Differences between groups were considered to be significant when the probability value (p) was ≦0.05.
(§2) For survival assessment, the percent of increased life space (ILS) was calculated as: 100×[(median survival day of treated group−median survival day of control group)/median survival day of control group]. Median survival was determined utilizing Kaplan Meier survival analysis. […] Differences between groups were considered significant when the probability value (p) was ≦0.05.
(§3) Tumor measurements were taken once or twice per week. All animals were individually followed throughout the experiment.

[2] = system: Human HT-29 Cell Xenografts; experiment: HT-29 xenograft mice, Example 5 (Compound I / cetuximab, treatment day 12-34): tumor growth inhibition, regression, survival; assay type: in vivo; conditions: for 50% Treatment Days: median survival
Protocol: as §1, §2, §3

[3] = Solubility in water, amorphous versus crystalline form; assay type: physicochemical; conditions: amorphous form as compared with the crystalline form
[4] = system: Human HT-29 Cell Xenografts; conditions: for tumor regression (partial or complete): Ex.6: Compound I 25 mg/kg bid, cetuximab 40 mg/kg 2x/wk, irinotecan HCl 40 mg/kg q4d x5 monotherapies, cetuximab + irinotecan combination
[5] = Toxicity in Example 5 study: body weight change, mortality, gross observation
[6] = Toxicity in Example 6 study: body weight change, mortality, gross observation
[7] = Toxicity in Example 4 study: body weight change, mortality, gross observation
Protocol: Erlotinib hydrochloride at 100 mg/kg qd was included as a monotherapy arm for comparison.

[8] = erlotinib hydrochloride 100 mg/kg qd in combination; Higgins et al., Anticancer Drugs 15:503-12 (2004); cited from earlier work
[9] = Ex.4: Compound I 75 mg/kg bid po
[10] = Ex.5: Compound I 25 mg/kg bid po
[11] = Ex.5: Compound I 75 mg/kg bid po
[12] = Ex.5: Compound I 75 mg/kg bid po, animals of 10 per group
[13] = Ex.6: Compound I 25 mg/kg bid po, animals of 10 per group
[14] = Ex.6: Compound I 25 mg/kg bid po
[15] = Ex.4: erlotinib HCl 67 mg/kg qd po
[16] = Ex.4: erlotinib HCl 100 mg/kg qd po
[17] = Ex.6: irinotecan HCl 40 mg/kg q4d x5 ip

For `CCCS(=O)(=O)Nc1ccc(F)c(C(=O)c2c[nH]c3ncc(-c4ccc(Cl)cc4)cc23)c1F` [Compound I, propane-1-sulfonic acid {3-[5-(4-chloro-phenyl)-1H-pyrrolo[2,3-b]pyridine-3-carbonyl]-2,4-difluoro-phenyl}-amide], the “% ILS” value [1, 9] was 100%, the “% Inhibition end of study Day: 29” value [1, 9] was 91% and the “% T/C end of study Day: 29” value [1, 9] was 9%. The “% Tumor Growth Inhibition” value [1, 9] was 91%, the “Mean Tumor Volume (mm^3) End Study” value [1, 9] was 270.24 mm^3 and the “Complete Regression” value [1, 9] was 0. The “Partial Regression” value [1, 9] was 0, the “50% Treatment Days” value [1, 9] was 52 days and the “% ILS” value [2, 10] was 44%. The “% Inhibition end of study Day: 34” value [2, 10] was 74%, the “% T/C end of study Day: 34” value [2, 10] was 26% and the “% Tumor Growth Inhibition” value [2, 10] was 74%. For the same compound, the “Mean Tumor Volume (mm^3) End Study” value [2, 10] was 615.99 mm^3, the “50% Treatment Days” value [2, 10] was 46 days and the “% ILS” value [2, 11] was 75%. The “% Inhibition end of study Day: 34” value [2, 11] was 93%, the “% T/C end of study Day: 34” value [2, 11] was 7% and the “% Tumor Growth Inhibition” value [2, 11] was 93%. For the same compound, the “Mean Tumor Volume (mm^3) End Study” value [2, 11] was 275.66 mm^3, the “Complete Regression” value [2, 12] was 0 and the “Partial Regression” value [2, 12] was 0. For the same compound, the “50% Treatment Days” value [2, 11] was 56 days, the solubility in water [3] was “greater solubility in water” and the “Complete Regression” value [4, 13] was 0. The “Partial Regression” value [4, 13] was 0, the “tumor regression (partial or complete)” value [4] was “no regressions” and the “# animals ≧ 20% BWL” value [5, 10] was 0. For the same compound, the “% Change in Body Weight at end of Study Day 34” value [5, 10] was 0.1%, the “Max % Weight Gain” value [5, 10] was 0.3% and the “Max % Weight Loss” value [5, 10] was −2.2%. For the same compound, the Mortality [5, 10] was 0, the “# animals ≧ 20% BWL” value [5, 11] was 0 and the “% Change in Body Weight at end of Study Day 34” value [5, 11] was −0.1%. The “Max % Weight Gain” value [5, 11] was 0.7%, the “Max % Weight Loss” value [5, 11] was −1.4% and the Mortality [5, 11] was 0. The “# animals ≧ 20% BWL” value [6, 14] was 0, the “% Change in Body Weight at end of Study Day 32” value [6, 14] was 2.9% and the “Max % Weight Gain” value [6, 14] was 3.8%. The “Max % Weight Loss” value [6, 14] was −0.6% and the Mortality [6, 14] was 0.

With `C#Cc1cccc(Nc2ncnc3cc(OCCOC)c(OCCOC)cc23)c1` [Erlotinib HCl, erlotinib hydrochloride] the “% ILS” value [1, 15] was 35%, the “% Inhibition end of study Day: 29” value [1, 15] was 38% and the “% T/C end of study Day: 29” value [1, 15] was 62%. For the same compound, the “% Tumor Growth Inhibition” value [1, 15] was 38%, the “Mean Tumor Volume (mm^3) End Study” value [1, 15] was 1025.10 mm^3 and the “Complete Regression” value [1, 15] was 0. The “Partial Regression” value [1, 15] was 0, the “50% Treatment Days” value [1, 15] was 35 days and the “% ILS” value [1, 16] was 38%. For the same compound, the “% Inhibition end of study Day: 29” value [1, 16] was 51%, the “% T/C end of study Day: 29” value [1, 16] was 49% and the “% Tumor Growth Inhibition” value [1, 16] was 51%. For the same compound, the “Mean Tumor Volume (mm^3) End Study” value [1, 16] was 838.75 mm^3, the “Complete Regression” value [1, 16] was 0 and the “Partial Regression” value [1, 16] was 0. For the same compound, the “50% Treatment Days” value [1, 16] was 36 days, the “# animals ≧ 20% BWL” value [7, 15] was 0 and the “% Change in Body Weight at end of Study Day 29” value [7, 15] was 3.1%. The “Max % Weight Gain” value [7, 15] was 3.1%, the “Max % Weight Loss” value [7, 15] was 0.1% and the Mortality [7, 15] was 0. The “# animals ≧ 20% BWL” value [7, 16] was 0, the “% Change in Body Weight at end of Study Day 29” value [7, 16] was 2.9% and the “Max % Weight Gain” value [7, 16] was 3.0%. For the same compound, the “Max % Weight Loss” value [7, 16] was −1.6%, the Mortality [7, 16] was 0 and the “EGFR inhibitor related skin rash” value ([7]; Ex.4: mice treated with erlotinib hydrochloride, self limiting under continuous treatment) was “skin rash was common”. For the same compound, the “tolerability in combination (historical)” value [8] was “not well tolerated”.

With `CCc1c2c(nc3ccc(OC(=O)N4CCC(N5CCCCC5)CC4)cc13)-c1cc3c(c(=O)n1C2)COC(=O)[C@]3(O)CC` [Irinotecan HCl, irinotecan hydrochloride, reference compound] the “tumor regression (partial or complete)” value [4] was “no regressions”, the “% ILS” value [4, 17] was 17% and the “# animals ≧ 20% BWL” value [6, 17] was 0. The “% Change in Body Weight at end of Study Day 32” value [6, 17] was 2.7%, the “Max % Weight Gain” value [6, 17] was 2.8% and the “Max % Weight Loss” value [6, 17] was 0.1%. For the same compound, the Mortality [6, 17] was 0.
